From PubChem BioAssay (NCI)
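Grown in 96-well plates, cells were treated for 48 hours with each compound at five concentrations. Insufficient inhibition: endpoint recorded as highest concentration tested. The concentration for 50% growth inhibition is given as GI50. TGI is the concentration that stops growth completely.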

What was measured:
Experiment in all cases: NCI-60 cell line screen, 48 h
[1] = tested on: HS 578T breast
[2] = tested on: SF-268 CNS
[3] = tested on: HCC-2998 colon
[4] = tested on: KM12 colon
[5] = tested on: SNB-19 CNS
[6] = tested on: CCRF-CEM leukemia
[7] = tested on: RPMI-8226 leukemia
[8] = tested on: M14 melanoma
[9] = tested on: TK-10 renal
[10] = tested on: MDA-MB-435
[11] = tested on: UO-31 renal
[12] = tested on: HOP-92 NSCLC
[13] = tested on: RXF 393 renal
[14] = tested on: OVCAR-5 ovarian
[15] = tested on: SK-MEL-28 melanoma
[16] = tested on: LOX IMVI melanoma
[17] = tested on: HCT-15 colon
[18] = tested on: ACHN renal
[19] = tested on: COLO 205 colon
[20] = tested on: SR leukemia
[21] = tested on: NCI-H460 lung
[22] = tested on: HOP-62 NSCLC
[23] = tested on: OVCAR-8 ovarian
[24] = tested on: SW-620 colon
[25] = tested on: OVCAR-3 ovarian
[26] = tested on: PC-3 prostate
[27] = tested on: T-47D breast
[28] = tested on: BT-549 breast
[29] = tested on: SF-539 CNS
[30] = tested on: HT29 colon
[31] = tested on: SK-MEL-5 melanoma
[32] = tested on: A498 renal
[33] = tested on: MOLT-4 leukemia
[34] = tested on: SF-295 CNS
[35] = tested on: HL-60(TB) leukemia
[36] = tested on: K-562 leukemia
[37] = tested on: HCT-116 colon
[38] = tested on: MALME-3M melanoma
[39] = tested on: NCI-H522 lung
[40] = tested on: 786-0 renal
[41] = tested on: UACC-257 melanoma
[42] = tested on: SN12C renal
[43] = tested on: NCI/ADR-RES ovarian
[44] = tested on: IGROV1 ovarian
[45] = tested on: SK-OV-3 ovarian
[46] = tested on: SK-MEL-2 melanoma
[47] = tested on: SNB-75 CNS
[48] = tested on: OVCAR-4 ovarian
[49] = tested on: U251 CNS
[50] = tested on: NCI-H226 lung
[51] = tested on: CAKI-1 renal
[52] = tested on: MCF7 breast
[53] = tested on: DU-145 prostate
[54] = tested on: MDA-MB-231 breast
[55] = tested on: EKVX NSCLC
[56] = tested on: A549 NSCLC

O=C1C2=C(C(=O)c3c(O)cccc31)C(c1ccco1)c1sc(=O)[nH]c1S2 (stereo unspecified)
GI50 [1]: 2.2 µM | TGI [1]: 6.56 µM | GI50 [2]: 3.48 µM | TGI [2]: 19.2 µM | GI50 [3]: 2.5 µM | TGI [3]: 5.51 µM | GI50 [4]: 3.71 µM | TGI [4]: 31.3 µM | GI50 [5]: 2.6 µM | TGI [5]: 7.33 µM | GI50 [6]: 3.29 µM | TGI [6]: > 100 µM | GI50 [7]: 2.62 µM | TGI [7]: 9.83 µM | GI50 [8]: 1.06 µM | TGI [8]: 2.37 µM | GI50 [9]: 12.3 µM | TGI [9]: 26.4 µM | GI50 [10]: 1.16 µM | TGI [10]: 2.47 µM | GI50 [11]: 2.56 µM | TGI [11]: 13.5 µM | GI50 [12]: 3.15 µM | TGI [12]: 8.08 µM | GI50 [13]: 2.02 µM | TGI [13]: 5.57 µM | GI50 [14]: 2.13 µM | TGI [14]: 4.58 µM | GI50 [15]: 1.87 µM | TGI [15]: 3.72 µM | GI50 [16]: 2.21 µM | TGI [16]: 7.55 µM | GI50 [17]: 1.75 µM | TGI [17]: 3.88 µM | GI50 [18]: 4.08 µM | TGI [18]: 16.1 µM | GI50 [19]: 1.89 µM | TGI [19]: 3.61 µM | GI50 [20]: 3.05 µM | TGI [20]: 69.5 µM | GI50 [21]: 1.54 µM | TGI [21]: 3.48 µM | GI50 [22]: 2.04 µM | TGI [22]: 3.74 µM | GI50 [23]: 2.46 µM | TGI [23]: 8.97 µM | GI50 [24]: 3.28 µM | TGI [24]: 10.5 µM | GI50 [25]: 2.86 µM | TGI [25]: 14 µM | GI50 [26]: 2.75 µM | TGI [26]: 21.6 µM | GI50 [27]: 2.87 µM | TGI [27]: 13 µM | GI50 [28]: 1.64 µM | TGI [28]: 3.2 µM | GI50 [29]: 1.93 µM | TGI [29]: 3.69 µM | GI50 [30]: 3.31 µM | TGI [30]: 9.25 µM | GI50 [31]: 1.59 µM | TGI [31]: 3 µM | GI50 [32]: 3.48 µM | TGI [32]: 9.69 µM | GI50 [33]: 2.71 µM | TGI [33]: 9.88 µM | GI50 [34]: 1.98 µM | TGI [34]: 3.59 µM | GI50 [35]: 1.82 µM | TGI [35]: 6.09 µM | GI50 [36]: 2.84 µM | TGI [36]: > 100 µM | GI50 [37]: 2.36 µM | GI50 [38]: 0.755 µM | TGI [38]: 2 µM | GI50 [39]: 2.31 µM | TGI [39]: 6.99 µM | GI50 [40]: 7.09 µM | TGI [40]: 24.2 µM | GI50 [41]: 1.57 µM | TGI [41]: 3.26 µM | GI50 [42]: 1.74 µM | TGI [42]: 3.49 µM | GI50 [43]: 3.02 µM | TGI [43]: 12.3 µM | GI50 [44]: 2.51 µM | TGI [44]: 6.14 µM | GI50 [45]: 15.5 µM | TGI [45]: 29.6 µM | GI50 [46]: 3.51 µM | TGI [46]: 16.4 µM | GI50 [47]: 3.17 µM | TGI [47]: 7.61 µM | GI50 [48]: 1.79 µM | TGI [48]: 3.95 µM | GI50 [49]: 3.07 µM | TGI [49]: 10.1 µM | GI50 [50]: 2.18 µM | TGI [50]: 5.46 µM | GI50 [51]: 3.29 µM | TGI [51]: 13.9 µM | GI50 [52]: 1.39 µM | TGI [52]: 3.34 µM | GI50 [53]: 1.55 µM | TGI [53]: 3.01 µM | GI50 [54]: 2.73 µM | TGI [54]: 9.08 µM | GI50 [55]: 6.75 µM | TGI [55]: 19.4 µM | GI50 [56]: 1.78 µM | TGI [56]: 3.63 µM
